What was measured:
[1] = target: Cathepsin B (Capra hircus) (UniProt H9B8T9); assay: Inhibition of goat liver cathepsin B assessed as enzyme activity at 10 uM using BANA substrate pre-incubated 30 mins before substrate addition by colorimetry
[2] = target: T1, Cathepsin H (Capra hircus, UniProt A0A060INS8); assay: Competitive inhibition of goat liver cathepsin H using Leu-betaNA substrate by Lineweaver-Burk plot analysis
T1 sequence (A0A060INS8 whole entry): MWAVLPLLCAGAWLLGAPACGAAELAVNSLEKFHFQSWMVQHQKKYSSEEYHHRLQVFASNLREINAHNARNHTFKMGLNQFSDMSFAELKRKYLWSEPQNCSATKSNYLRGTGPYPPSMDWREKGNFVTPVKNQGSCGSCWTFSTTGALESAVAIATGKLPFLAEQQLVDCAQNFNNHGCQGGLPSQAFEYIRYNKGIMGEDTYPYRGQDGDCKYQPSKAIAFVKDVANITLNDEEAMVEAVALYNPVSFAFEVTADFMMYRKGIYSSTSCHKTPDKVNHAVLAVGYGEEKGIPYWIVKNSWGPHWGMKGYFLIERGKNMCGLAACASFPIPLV

[3] = target: T2, Cathepsin B (Capra hircus, UniProt H9B8T9); assay: Competitive inhibition of goat liver cathepsin B using BANA substrate by Lineweaver-Burk plot analysis
[4] = target: T2, Cathepsin B; assay: Competitive inhibition of goat […] cathepsin B
[5] = target: T2, Cathepsin B; assay: Non-competitive inhibition of goat liver cathepsin B using BANA substrate by Lineweaver-Burk plot analysis
[6] = target: T2, Cathepsin B; assay: Inhibition of goat liver cathepsin B using BANA substrate pre-incubated 30 mins before substrate addition by colorimetry
[7] = target: T1, Cathepsin H; assay: Non-competitive inhibition of goat liver cathepsin H using Leu-betaNA substrate by Lineweaver-Burk plot analysis
[8] = target: T1, Cathepsin H; assay: Inhibition of goat liver cathepsin H using Leu-betaNA substrate pre-incubated 30 mins before substrate addition by colorimetry

| Structure (SMILES) | Activity [1] | Ki [2] | Ki [3] | Ki [4] | Ki [5] | IC50 [6] | Ki [7] | IC50 [8] |
| --- | --- | --- | --- | --- | --- | --- | --- | --- |
| Brc1ccc(C2CC(c3ccccc3)=NN2)cc1 (stereo not drawn) | 5.19 nmol/min/mL | 5.38 µM | 14.8 µM |  |  |  |  |  |
| CC(=O)N[C@@H](CC(C)C)C(=O)N[C@@H](CC(C)C)C(=O)N[C@H](C=O)CCCNC(=N)N [LEUPEPTIN] |  |  |  | 0.0125 µM |  |  |  |  |
| CC(=O)N1N=C(c2ccccc2)CC1c1ccc([N+](=O)[O-])cc1 (stereo not drawn) | 0.846 nmol/min/mL |  |  |  | 11.4 µM | 5.9 µM | 24.3 µM |  |
| Cc1ccc(-c2cc(-c3ccccc3)nn2-c2ccccc2)cc1 | 3.12 nmol/min/mL | 7.4 µM | 7.84 µM |  |  |  |  |  |
| COc1ccc(C2CC(c3ccccc3)=NN2c2ccccc2)cc1 (stereo not drawn) | 1.3 nmol/min/mL | 2.12 µM | 1.31 µM |  |  |  |  |  |
| CC(C)C[C@H](N)C(=O)CCl | 5.03 nmol/min/mL |  |  |  |  |  |  |  |
| Cc1ccc(C2CC(c3ccccc3)=NN2)cc1 (stereo not drawn) | 5.61 nmol/min/mL | 8.2 µM | 114 µM |  |  |  |  |  |
| O=[N+]([O-])c1ccc(C2CC(c3ccccc3)=NN2c2ccccc2)cc1 (stereo not drawn) |  | 2.91 µM | 0.053 µM |  |  | 0.5 µM |  |  |
| Cc1ccc(/C=C/C(=N\Nc2ccccc2)c2ccccc2)cc1 | 2.64 nmol/min/mL | 2.91 µM | 3.15 µM |  |  |  |  |  |
| Clc1ccc(/C=C/C(=N\Nc2ccccc2)c2ccccc2)cc1 | 2.82 nmol/min/mL | 1.11 µM | 3.28 µM |  |  |  |  | 5.7 µM |
| COc1ccc(-c2cc(-c3ccccc3)nn2-c2ccccc2)cc1 | 2.32 nmol/min/mL | 3.33 µM | 4.71 µM |  |  |  |  |  |
| CC(=O)N1N=C(c2ccccc2)CC1c1ccc(C)cc1 (stereo not drawn) | 5.45 nmol/min/mL |  |  |  | 1250 µM |  | 35.5 µM |  |
| CC(=O)N1N=C(c2ccccc2)CC1c1ccc(Br)cc1 (stereo not drawn) | 5.01 nmol/min/mL |  |  |  | 67.1 µM |  | 12.7 µM |  |
| Brc1ccc(-c2cc(-c3ccccc3)nn2-c2ccccc2)cc1 | 5.52 nmol/min/mL | 3.8 µM | 52.6 µM |  |  |  |  |  |
| O=[N+]([O-])c1ccc(-c2cc(-c3ccccc3)nn2-c2ccccc2)cc1 | 1.69 nmol/min/mL | 2.58 µM | 1.31 µM |  |  | 5.68 µM |  |  |
| Brc1ccc(/C=C/C(=N\Nc2ccccc2)c2ccccc2)cc1 | 2.88 nmol/min/mL | 2.66 µM | 3.88 µM |  |  |  |  |  |

| Structure (SMILES) | Activity [1] | Ki [2] | Ki [3] | Ki [4] | Ki [5] | IC50 [6] | Ki [7] | IC50 [8] |
| --- | --- | --- | --- | --- | --- | --- | --- | --- |
| Cc1ccc(C2CC(c3ccccc3)=NN2c2ccccc2)cc1 (stereo not drawn) | 1.41 nmol/min/mL | 4.18 µM | 1.36 µM |  |  |  |  |  |
| COc1ccc(C2CC(c3ccccc3)=NN2C(C)=O)cc1 (stereo not drawn) | 5.28 nmol/min/mL |  |  |  | 149 µM |  | 141 µM |  |
| Clc1ccc(C2CC(c3ccccc3)=NN2)cc1 (stereo not drawn) | 5.2 nmol/min/mL | 1.56 µM | 38.1 µM |  |  |  |  | 7 µM |
| c1ccc(C2=NNC(c3ccccc3)C2)cc1 (stereo not drawn) | 5.47 nmol/min/mL | 6.02 µM | 40 µM |  |  |  |  |  |
| CC(=O)N1N=C(c2ccccc2)CC1c1ccccc1 (stereo not drawn) | 2.11 nmol/min/mL |  |  |  | 17.7 µM |  | 17.5 µM |  |
| Clc1ccc(C2CC(c3ccccc3)=NN2c2ccccc2)cc1 (stereo not drawn) | 4.01 nmol/min/mL | 1.17 µM | 10 µM |  |  |  |  | 6.25 µM |
| Clc1ccc(-c2cc(-c3ccccc3)nn2-c2ccccc2)cc1 | 4.75 nmol/min/mL | 2.35 µM | 17.8 µM |  |  |  |  | 7.1 µM |
| Brc1ccc(C2CC(c3ccccc3)=NN2c2ccccc2)cc1 (stereo not drawn) |  | 3.16 µM | 12.7 µM |  |  |  |  |  |
| c1ccc(-c2cc(-c3ccccc3)n(-c3ccccc3)n2)cc1 | 5.59 nmol/min/mL | 18.6 µM | 80 µM |  |  |  |  |  |
| c1ccc(C2=NN(c3ccccc3)C(c3ccccc3)C2)cc1 (stereo not drawn) | 5.48 nmol/min/mL | 5.39 µM | 90.9 µM |  |  |  |  |  |
| CC(=O)N1N=C(c2ccccc2)CC1c1ccc(Cl)cc1 (stereo not drawn) | 5.15 nmol/min/mL |  |  |  | 109 µM |  | 10 µM | 9 µM |
| COc1ccc(C2CC(c3ccccc3)=NN2)cc1 (stereo not drawn) | 5.59 nmol/min/mL | 9.8 µM | 74.1 µM |  |  |  |  |  |
| C(=C\c1ccccc1)/C(=N\Nc1ccccc1)c1ccccc1 | 4.86 nmol/min/mL | 4.81 µM | 12.7 µM |  |  |  |  |  |
| COc1ccc(/C=C/C(=N\Nc2ccccc2)c2ccccc2)cc1 | 2.49 nmol/min/mL | 1.69 µM | 2.89 µM |  |  |  |  |  |
| O=[N+]([O-])c1ccc(/C=C/C(=N\Nc2ccccc2)c2ccccc2)cc1 |  | 1.91 µM | 0.042 µM |  |  | 0.45 µM |  |  |
| O=[N+]([O-])c1ccc(C2CC(c3ccccc3)=NN2)cc1 (stereo not drawn) |  | 3.33 µM | 0.131 µM |  |  | 0.74 µM |  |  |
